Tests used:
[1] = target: Mitogen-activated protein kinase 1 (Homo sapiens) (UniProt P28482); conditions: Compound concentration 1000.0 nM
[2] = system: Receptor-type tyrosine-protein kinase FLT3 (Homo sapiens), P36888 [N841I]; conditions: Compound concentration 1000.0 nM
[3] = target: Receptor-interacting serine/threonine-protein kinase 2 (Homo sapiens) (UniProt O43353); conditions: Compound concentration 1000.0 nM
[4] = target: Calcium/calmodulin-dependent protein kinase type IV (Homo sapiens) (UniProt Q16566); conditions: Compound concentration 1000.0 nM
[5] = target: Inhibitor of nuclear factor kappa-B kinase subunit beta (Homo sapiens) (UniProt O14920); conditions: Compound concentration 1000.0 nM
[6] = system: Phosphatidylinositol 4,5-bisphosphate 3-kinase catalytic subunit alpha isoform (Homo sapiens), P42336 [E542K]; conditions: Compound concentration 1000.0 nM
[7] = target: Serine/threonine-protein kinase SBK1 (Homo sapiens) (UniProt Q52WX2); conditions: Compound concentration 1000.0 nM
[8] = target: Rho-associated protein kinase 2 (Homo sapiens) (UniProt O75116); conditions: Compound concentration 1000.0 nM
[9] = target: Leukocyte tyrosine kinase receptor (Homo sapiens) (UniProt P29376); conditions: Compound concentration 1000.0 nM
[10] = target: Rhodopsin kinase GRK1 (Homo sapiens) (UniProt Q15835); conditions: Compound concentration 1000.0 nM
[11] = system: Tyrosine-protein kinase ABL1 (Homo sapiens), P00519 [F317I]; conditions: Compound concentration 1000.0 nM
[12] = target: BMP-2-inducible protein kinase (Homo sapiens) (UniProt Q9NSY1); conditions: Compound concentration 1000.0 nM
[13] = target: 5-hydroxytryptamine receptor 2B (Homo sapiens) (UniProt P41595); conditions: Compound concentration 10.0 uM
[14] = target: MAP kinase-interacting serine/threonine-protein kinase 1 (Homo sapiens) (UniProt Q9BUB5); conditions: Compound concentration 1000.0 nM
[15] = target: Serine/threonine-protein kinase 25 (Homo sapiens) (UniProt O00506); conditions: Compound concentration 1000.0 nM
[16] = target: Serine/threonine-protein kinase DCLK2 (Homo sapiens) (UniProt Q8N568); conditions: Compound concentration 1000.0 nM
[17] = target: Serine/threonine-protein kinase 16 (Homo sapiens) (UniProt O75716); conditions: Compound concentration 1000.0 nM
[18] = target: Interleukin-1 receptor-associated kinase 1 (Homo sapiens) (UniProt P51617); conditions: Compound concentration 1000.0 nM
[19] = target: Serine/threonine-protein kinase 4 (Homo sapiens) (UniProt Q13043); conditions: Compound concentration 1000.0 nM
[20] = target: Dual specificity mitogen-activated protein kinase kinase 5 (Homo sapiens) (UniProt Q13163); conditions: Compound concentration 1000.0 nM
[21] = target: Megakaryocyte-associated tyrosine-protein kinase (Homo sapiens) (UniProt P42679); conditions: Compound concentration 1000.0 nM
[22] = target: Serine/threonine-protein kinase PLK2 (Homo sapiens) (UniProt Q9NYY3); conditions: Compound concentration 1000.0 nM
[23] = target: Homeodomain-interacting protein kinase 3 (Homo sapiens) (UniProt Q9H422); conditions: Compound concentration 1000.0 nM
[24] = target: Mitogen-activated protein kinase kinase kinase kinase 2 (Homo sapiens) (UniProt Q12851); conditions: Compound concentration 1000.0 nM
[25] = target: Phosphatidylinositol 4,5-bisphosphate 3-kinase catalytic subunit gamma isoform (Homo sapiens) (UniProt P48736); conditions: Compound concentration 1000.0 nM
[26] = target: Calcium/calmodulin-dependent protein kinase type II subunit alpha (Homo sapiens) (UniProt Q9UQM7); conditions: Compound concentration 1000.0 nM
[27] = target: Cyclin-dependent kinase 5 (Homo sapiens) (UniProt Q00535); conditions: Compound concentration 1000.0 nM
[28] = target: Serine/threonine-protein kinase WNK3 (Homo sapiens) (UniProt Q9BYP7); conditions: Compound concentration 1000.0 nM
[29] = target: Serine/threonine-protein kinase D1 (Homo sapiens) (UniProt Q15139); conditions: Compound concentration 1000.0 nM
[30] = system: Epidermal growth factor receptor (Homo sapiens), P00533 [L858R,T790M]; conditions: Compound concentration 1000.0 nM
[31] = target: Serine/threonine-protein kinase Nek4 (Homo sapiens) (UniProt P51957); conditions: Compound concentration 1000.0 nM
[32] = target: Serine/threonine-protein kinase/endoribonuclease IRE1 (Homo sapiens) (UniProt O75460); conditions: Compound concentration 1000.0 nM
[33] = target: Protein kinase C delta type (Homo sapiens) (UniProt Q05655); conditions: Compound concentration 1000.0 nM
[34] = target: Calcium/calmodulin-dependent protein kinase type II subunit beta (Homo sapiens) (UniProt Q13554); conditions: Compound concentration 1000.0 nM
[35] = system: Phosphatidylinositol 4,5-bisphosphate 3-kinase catalytic subunit alpha isoform (Homo sapiens), P42336 [H1047Y]; conditions: Compound concentration 1000.0 nM
[36] = target: RAF proto-oncogene serine/threonine-protein kinase (Homo sapiens) (UniProt P04049); conditions: Compound concentration 1000.0 nM
[37] = target: Calcium/calmodulin-dependent protein kinase type 1 (Homo sapiens) (UniProt Q14012); conditions: Compound concentration 1000.0 nM
[38] = target: Serine/threonine-protein kinase MRCK beta (Homo sapiens) (UniProt Q9Y5S2); conditions: Compound concentration 1000.0 nM
[39] = target: Tyrosine-protein kinase Fyn (Homo sapiens) (UniProt P06241); conditions: Compound concentration 1000.0 nM
[40] = target: Casein kinase I isoform alpha (Homo sapiens) (UniProt P48729); conditions: Compound concentration 1000.0 nM
[41] = target: Proto-oncogene tyrosine-protein kinase receptor Ret (Homo sapiens) (UniProt P07949); conditions: Compound concentration 1000.0 nM
[42] = target: MAP kinase-interacting serine/threonine-protein kinase 2 (Homo sapiens) (UniProt Q9HBH9); conditions: Compound concentration 1000.0 nM
[43] = target: Serine/threonine-protein kinase Nek11 (Homo sapiens) (UniProt Q8NG66); conditions: Compound concentration 1000.0 nM
[44] = target: Protein kinase C iota type (Homo sapiens) (UniProt P41743); conditions: Compound concentration 1000.0 nM
Rattus norvegicus = species: Rattus norvegicus; conditions: Compound concentration 10.0 uM

Sequence of Phosphatidylinositol 4,5-bisphosphate 3-kinase catalytic subunit gamma isoform (Homo sapiens) (P48736 whole entry, looked up, canonical isoform): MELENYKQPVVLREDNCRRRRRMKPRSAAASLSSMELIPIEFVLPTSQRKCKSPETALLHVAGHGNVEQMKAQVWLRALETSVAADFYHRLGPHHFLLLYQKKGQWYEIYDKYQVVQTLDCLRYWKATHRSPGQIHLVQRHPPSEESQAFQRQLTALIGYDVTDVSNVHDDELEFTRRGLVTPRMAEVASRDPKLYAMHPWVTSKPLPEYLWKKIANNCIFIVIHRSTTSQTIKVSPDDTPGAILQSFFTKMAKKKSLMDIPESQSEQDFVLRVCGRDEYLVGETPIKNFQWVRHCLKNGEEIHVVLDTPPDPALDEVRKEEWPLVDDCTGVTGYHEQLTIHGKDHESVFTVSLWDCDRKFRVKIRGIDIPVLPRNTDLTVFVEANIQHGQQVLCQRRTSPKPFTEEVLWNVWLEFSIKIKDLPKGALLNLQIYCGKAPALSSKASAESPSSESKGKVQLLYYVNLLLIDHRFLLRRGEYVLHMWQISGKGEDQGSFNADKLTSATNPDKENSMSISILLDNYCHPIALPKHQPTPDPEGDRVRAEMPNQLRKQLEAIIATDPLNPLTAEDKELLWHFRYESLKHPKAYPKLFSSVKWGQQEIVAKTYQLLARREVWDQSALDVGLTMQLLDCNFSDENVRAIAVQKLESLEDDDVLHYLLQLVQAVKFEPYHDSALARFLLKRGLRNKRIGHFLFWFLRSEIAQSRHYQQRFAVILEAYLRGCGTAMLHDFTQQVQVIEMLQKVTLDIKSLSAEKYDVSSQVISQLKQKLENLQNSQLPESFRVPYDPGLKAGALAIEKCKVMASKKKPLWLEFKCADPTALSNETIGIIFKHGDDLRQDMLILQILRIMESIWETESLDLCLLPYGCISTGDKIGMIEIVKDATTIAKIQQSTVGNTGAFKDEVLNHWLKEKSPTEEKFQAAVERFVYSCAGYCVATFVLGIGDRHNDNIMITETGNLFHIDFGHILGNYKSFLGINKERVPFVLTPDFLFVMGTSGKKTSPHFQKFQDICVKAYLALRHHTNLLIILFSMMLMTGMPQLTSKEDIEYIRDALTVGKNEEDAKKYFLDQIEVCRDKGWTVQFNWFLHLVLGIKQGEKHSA
Sequence of Serine/threonine-protein kinase 25 (Homo sapiens) (O00506 whole entry, looked up): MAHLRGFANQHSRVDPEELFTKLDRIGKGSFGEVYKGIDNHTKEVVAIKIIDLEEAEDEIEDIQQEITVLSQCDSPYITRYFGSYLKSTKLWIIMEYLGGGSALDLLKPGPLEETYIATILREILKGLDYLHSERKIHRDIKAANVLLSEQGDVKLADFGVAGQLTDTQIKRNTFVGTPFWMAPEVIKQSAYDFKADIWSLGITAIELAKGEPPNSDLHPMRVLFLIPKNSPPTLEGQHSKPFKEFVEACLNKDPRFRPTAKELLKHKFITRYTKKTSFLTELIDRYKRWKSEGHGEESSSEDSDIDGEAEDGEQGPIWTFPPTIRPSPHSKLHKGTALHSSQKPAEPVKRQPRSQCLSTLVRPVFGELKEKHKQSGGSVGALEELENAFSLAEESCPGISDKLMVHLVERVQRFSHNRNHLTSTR
Sequence of Serine/threonine-protein kinase WNK3 (Homo sapiens) (Q9BYP7 whole entry): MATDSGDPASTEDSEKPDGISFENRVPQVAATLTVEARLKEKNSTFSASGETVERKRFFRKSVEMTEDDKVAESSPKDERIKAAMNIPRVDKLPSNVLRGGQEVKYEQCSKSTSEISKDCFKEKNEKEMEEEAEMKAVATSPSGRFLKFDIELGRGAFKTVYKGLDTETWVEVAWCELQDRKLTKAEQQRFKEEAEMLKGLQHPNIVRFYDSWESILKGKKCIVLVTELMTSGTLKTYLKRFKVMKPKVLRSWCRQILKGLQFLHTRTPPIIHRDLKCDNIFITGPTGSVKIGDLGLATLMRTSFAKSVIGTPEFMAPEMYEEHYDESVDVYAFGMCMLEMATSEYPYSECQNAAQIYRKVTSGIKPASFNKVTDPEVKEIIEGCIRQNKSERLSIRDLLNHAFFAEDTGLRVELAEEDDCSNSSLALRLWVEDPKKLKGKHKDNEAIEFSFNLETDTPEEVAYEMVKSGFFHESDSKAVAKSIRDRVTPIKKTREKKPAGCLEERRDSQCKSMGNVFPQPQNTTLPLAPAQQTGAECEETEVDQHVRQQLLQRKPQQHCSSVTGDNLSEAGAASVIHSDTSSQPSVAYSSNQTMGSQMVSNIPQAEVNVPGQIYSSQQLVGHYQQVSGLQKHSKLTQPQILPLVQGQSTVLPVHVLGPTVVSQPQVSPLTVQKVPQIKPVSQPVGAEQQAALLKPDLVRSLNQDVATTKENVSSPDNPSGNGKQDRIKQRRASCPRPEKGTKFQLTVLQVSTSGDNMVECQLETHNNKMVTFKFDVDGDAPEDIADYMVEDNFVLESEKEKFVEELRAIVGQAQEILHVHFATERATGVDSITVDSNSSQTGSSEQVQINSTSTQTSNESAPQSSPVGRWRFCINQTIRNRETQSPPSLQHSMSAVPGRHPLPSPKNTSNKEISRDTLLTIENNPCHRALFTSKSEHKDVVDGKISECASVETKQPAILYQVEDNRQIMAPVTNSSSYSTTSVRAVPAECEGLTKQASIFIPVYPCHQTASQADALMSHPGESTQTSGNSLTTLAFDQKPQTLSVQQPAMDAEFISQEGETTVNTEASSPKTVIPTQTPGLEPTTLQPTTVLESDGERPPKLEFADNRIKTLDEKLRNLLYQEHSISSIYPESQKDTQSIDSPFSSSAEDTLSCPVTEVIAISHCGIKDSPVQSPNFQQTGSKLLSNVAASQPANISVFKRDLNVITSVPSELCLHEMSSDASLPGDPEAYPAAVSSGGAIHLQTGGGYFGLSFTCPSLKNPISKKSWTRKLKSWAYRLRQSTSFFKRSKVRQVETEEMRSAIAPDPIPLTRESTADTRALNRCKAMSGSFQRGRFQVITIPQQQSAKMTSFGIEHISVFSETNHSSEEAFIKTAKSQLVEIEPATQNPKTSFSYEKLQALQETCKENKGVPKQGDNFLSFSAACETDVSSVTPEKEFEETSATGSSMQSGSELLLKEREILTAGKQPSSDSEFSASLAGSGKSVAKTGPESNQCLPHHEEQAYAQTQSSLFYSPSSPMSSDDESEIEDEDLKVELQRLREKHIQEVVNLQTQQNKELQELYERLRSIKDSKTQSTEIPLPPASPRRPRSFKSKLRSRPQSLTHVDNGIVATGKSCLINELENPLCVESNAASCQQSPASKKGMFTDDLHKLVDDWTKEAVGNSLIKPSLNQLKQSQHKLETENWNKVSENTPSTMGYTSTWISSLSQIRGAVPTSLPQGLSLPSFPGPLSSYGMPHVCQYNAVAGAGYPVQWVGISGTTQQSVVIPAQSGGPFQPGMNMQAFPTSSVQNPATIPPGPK
Sequence of 5-hydroxytryptamine receptor 2B (Homo sapiens) (P41595 whole entry): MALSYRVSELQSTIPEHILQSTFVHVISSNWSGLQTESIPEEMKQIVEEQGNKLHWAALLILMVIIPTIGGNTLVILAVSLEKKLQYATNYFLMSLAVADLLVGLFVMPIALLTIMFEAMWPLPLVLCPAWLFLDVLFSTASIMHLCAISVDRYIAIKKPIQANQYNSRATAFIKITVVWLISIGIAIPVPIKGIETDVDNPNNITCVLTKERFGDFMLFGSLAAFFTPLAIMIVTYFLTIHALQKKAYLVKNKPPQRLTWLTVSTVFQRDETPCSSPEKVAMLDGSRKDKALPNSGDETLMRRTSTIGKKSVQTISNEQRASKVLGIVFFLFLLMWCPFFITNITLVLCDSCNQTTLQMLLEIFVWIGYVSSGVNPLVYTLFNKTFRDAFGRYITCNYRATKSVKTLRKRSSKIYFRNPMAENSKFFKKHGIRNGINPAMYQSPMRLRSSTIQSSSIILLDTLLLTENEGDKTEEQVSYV
Sequence of Serine/threonine-protein kinase PLK2 (Homo sapiens) (Q9NYY3 whole entry, looked up): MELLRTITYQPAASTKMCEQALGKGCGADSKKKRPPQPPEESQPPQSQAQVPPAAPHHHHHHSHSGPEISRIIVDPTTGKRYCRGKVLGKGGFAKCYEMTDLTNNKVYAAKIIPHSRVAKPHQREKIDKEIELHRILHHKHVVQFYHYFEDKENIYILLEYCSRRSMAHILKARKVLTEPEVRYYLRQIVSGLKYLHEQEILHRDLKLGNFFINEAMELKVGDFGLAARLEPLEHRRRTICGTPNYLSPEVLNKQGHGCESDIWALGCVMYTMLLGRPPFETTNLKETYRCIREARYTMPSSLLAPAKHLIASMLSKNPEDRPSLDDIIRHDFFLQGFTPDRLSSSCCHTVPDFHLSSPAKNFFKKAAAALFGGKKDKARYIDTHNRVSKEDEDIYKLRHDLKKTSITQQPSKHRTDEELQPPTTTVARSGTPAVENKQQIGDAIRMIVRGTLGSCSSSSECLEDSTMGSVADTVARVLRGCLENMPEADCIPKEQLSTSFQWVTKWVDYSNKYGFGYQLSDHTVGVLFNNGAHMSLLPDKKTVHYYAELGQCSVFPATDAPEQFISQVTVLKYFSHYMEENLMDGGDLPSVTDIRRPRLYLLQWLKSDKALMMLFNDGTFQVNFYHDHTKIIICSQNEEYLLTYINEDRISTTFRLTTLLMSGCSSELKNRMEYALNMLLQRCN
Sequence of Dual specificity mitogen-activated protein kinase kinase 5 (Homo sapiens) (Q13163 whole entry): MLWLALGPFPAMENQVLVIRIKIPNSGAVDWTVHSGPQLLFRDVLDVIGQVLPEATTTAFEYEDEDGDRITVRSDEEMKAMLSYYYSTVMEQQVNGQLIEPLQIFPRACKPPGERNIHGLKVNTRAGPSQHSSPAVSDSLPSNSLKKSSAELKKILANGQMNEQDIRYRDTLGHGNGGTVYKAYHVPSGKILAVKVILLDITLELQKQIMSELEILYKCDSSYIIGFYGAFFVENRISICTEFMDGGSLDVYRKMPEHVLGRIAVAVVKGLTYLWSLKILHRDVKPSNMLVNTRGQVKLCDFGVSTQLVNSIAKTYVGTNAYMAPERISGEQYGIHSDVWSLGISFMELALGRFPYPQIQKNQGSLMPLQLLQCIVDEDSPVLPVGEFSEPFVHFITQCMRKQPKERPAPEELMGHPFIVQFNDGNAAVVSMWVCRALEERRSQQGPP

C[C@@H](c1cccc(C#N)c1)n1cc(Cl)cc(C(N)=O)c1=N [(S)-9s]
residual activity [1]: 82%
residual activity [2]: 86%
residual activity [3]: 88%
residual activity [4]: 82%
residual activity [5]: 100%
residual activity [6]: 89%
residual activity [7]: 99%
residual activity [8]: 90%
residual activity [9]: 94%
residual activity [10]: 75%
residual activity [11]: 76%
residual activity [12]: 93%
inhibition [13]: 3.93%
residual activity [14]: 86%
residual activity [15]: 100%
residual activity [16]: 90%
residual activity [17]: 85%
residual activity [18]: 76%
residual activity [19]: 100%
residual activity [20]: 88%
residual activity [21]: 100%
residual activity [22]: 97%
residual activity [23]: 70%
residual activity [24]: 90%
residual activity [25]: 100%
residual activity [26]: 100%
residual activity [27]: 92%
residual activity [28]: 82%
residual activity [29]: 90%
residual activity [30]: 86%
residual activity [31]: 96%
residual activity [32]: 76%
residual activity [33]: 77%
residual activity [34]: 100%
residual activity [35]: 100%
residual activity [36]: 100%
residual activity [37]: 100%
residual activity [38]: 100%
residual activity [39]: 65%
residual activity [40]: 81%
residual activity [41]: 100%
residual activity [42]: 100%
residual activity [43]: 92%
residual activity [44]: 93%
inhibition (Rattus norvegicus): 1.07%

C[C@H](c1cccc(C#N)c1)n1cc(Cl)cc(C(N)=O)c1=N [(R)-9s]
residual activity [1]: 93%
residual activity [2]: 97%
residual activity [3]: 66%
residual activity [4]: 90%
residual activity [5]: 100%
residual activity [6]: 77%
residual activity [7]: 83%
residual activity [8]: 94%
residual activity [9]: 99%
residual activity [10]: 74%
residual activity [11]: 85%
residual activity [12]: 100%
inhibition [13]: 9.88%
residual activity [14]: 63%
residual activity [15]: 100%
residual activity [16]: 88%
residual activity [17]: 100%
residual activity [18]: 71%
residual activity [19]: 100%
residual activity [20]: 100%
residual activity [21]: 100%
residual activity [22]: 92%
residual activity [23]: 81%
residual activity [24]: 99%
residual activity [25]: 98%
residual activity [26]: 100%
residual activity [27]: 100%
residual activity [28]: 80%
residual activity [29]: 100%
residual activity [30]: 89%
residual activity [31]: 100%
residual activity [32]: 69%
residual activity [33]: 91%
residual activity [34]: 100%
residual activity [35]: 95%
residual activity [36]: 100%
residual activity [37]: 100%
residual activity [38]: 85%
residual activity [39]: 42%
residual activity [40]: 86%
residual activity [41]: 94%
residual activity [42]: 100%
residual activity [43]: 100%
residual activity [44]: 100%
inhibition (Rattus norvegicus): 10.7%

Source: ChEMBL document CHEMBL4507301 (2021)
